Measured values as given in ChEMBL document CHEMBL1127959, “Thia-prostanoid analogs with combined thromboxane receptor antagonist/thromboxane synthase inhibitor activities. Synthesis and pharmacological evaluation” (Bioorg Med Chem Lett, 1994).

The molecules below were run against T1, Thromboxane-A synthase (Homo sapiens, UniProt P24557) (assay: In vitro inhibition of thromboxane synthase).
T1 sequence (P24557 whole entry): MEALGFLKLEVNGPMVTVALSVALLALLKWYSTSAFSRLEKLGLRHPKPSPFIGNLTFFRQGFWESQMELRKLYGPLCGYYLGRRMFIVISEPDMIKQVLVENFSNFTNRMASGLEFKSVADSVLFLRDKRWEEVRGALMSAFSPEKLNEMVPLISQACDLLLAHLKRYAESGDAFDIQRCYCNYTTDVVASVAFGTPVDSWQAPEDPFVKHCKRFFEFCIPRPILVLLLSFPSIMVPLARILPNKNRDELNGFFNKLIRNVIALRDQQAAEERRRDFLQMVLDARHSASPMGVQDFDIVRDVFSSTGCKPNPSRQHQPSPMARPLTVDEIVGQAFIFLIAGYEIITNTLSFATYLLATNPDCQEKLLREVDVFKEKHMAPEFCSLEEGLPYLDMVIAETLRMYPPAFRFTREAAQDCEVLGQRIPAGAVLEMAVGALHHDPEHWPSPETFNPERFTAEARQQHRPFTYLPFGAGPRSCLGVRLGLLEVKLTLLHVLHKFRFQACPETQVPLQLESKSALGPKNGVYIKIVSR

Row | SMILES | IC50
1 | O=C(O)CC/C=C\CC[C@@H]1[C@@H](c2cccnc2)SC[C@H]1OCc1ccc(-c2ccccc2)cc1 (stereo in doubt; (+)) | 18 nM
2 | O=C(O)CC/C=C\CC[C@@H]1[C@@H](c2cccnc2)[S@@+]([O-])C[C@H]1OCc1ccc(-c2ccccc2)cc1 | > 200 nM
3 | O=C(O)CC/C=C\CC[C@@H]1[C@@H](c2cccnc2)[S@+]([O-])C[C@H]1OCc1ccc(-c2ccccc2)cc1 | > 200 nM
4 | O=C(O)CC/C=C\CC[C@H]1[C@@H](OCc2ccc(-c3ccccc3)cc2)CS(=O)(=O)[C@@H]1c1cccnc1 | > 200 nM
5 | O=C(O)CC/C=C\CC[C@@H]1[C@@H](c2cccnc2)SC[C@H]1OCc1ccc(-c2ccccc2)cc1 (stereo in doubt; (-)) | 13 nM
6 | O=C(O)CC/C=C\CC[C@@H]1[C@@H](c2cccnc2)S(=O)(=O)C[C@H]1OCc1ccc(-c2ccccc2)cc1 | > 200 nM
7 | O=C(O)CC/C=C\CC[C@H]1[C@@H](OCc2ccc(-c3ccccc3)cc2)CS[C@@H]1c1cccnc1 | 11 nM
8 | O=C(O)CC/C=C\CC[C@@H]1[C@@H](c2cccnc2)SC[C@H]1OCc1ccc(-c2ccccc2)cc1 (stereo in doubt; 1) | 10 nM
9 | O=C(O)CC/C=C\CC[C@H]1[C@@H](OCc2ccc(-c3ccccc3)cc2)C[S+]([O-])[C@@H]1c1cccnc1 (some centres not stated) | > 100 nM
10 | O=C(O)CCC/C=C\C[C@@H]1[C@@H](c2cccnc2)SC[C@H]1OCc1ccc(-c2ccccc2)cc1 | 43 nM
11 | O=C(O)CCCCCc1cccc2cncn12 [PIRMAGREL] | 3 nM

What follows are molecules tested against T2, Thromboxane A2 receptor (Homo sapiens, UniProt P21731) (assay: In vitro thromboxane receptor antagonist activity was determined by inhibition of U-46619 induced aggregation of washed human platelets).
T2 sequence (P21731 whole entry): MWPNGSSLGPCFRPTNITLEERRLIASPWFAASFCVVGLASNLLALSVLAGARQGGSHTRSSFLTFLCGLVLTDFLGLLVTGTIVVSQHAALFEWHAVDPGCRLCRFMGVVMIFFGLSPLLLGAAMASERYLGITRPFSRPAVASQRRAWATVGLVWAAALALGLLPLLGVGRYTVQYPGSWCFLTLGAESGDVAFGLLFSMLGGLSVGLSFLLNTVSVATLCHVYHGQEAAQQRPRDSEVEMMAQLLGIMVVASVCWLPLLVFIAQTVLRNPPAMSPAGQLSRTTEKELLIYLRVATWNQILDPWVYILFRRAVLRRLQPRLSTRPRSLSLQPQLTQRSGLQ
Assay type: functional; call rule not given here

Row | SMILES | IC50
12 | O=C(O)CCCCCc1cccc2cncn12 [PIRMAGREL] | Not Active
